# According to ChEMBL document CHEMBL1932988, “Synthesis, antimicrobial, anticancer evaluation and QSAR studies of 6-methyl-4-[1-(2-substituted-phenylamino-acetyl)-1H-indol-3-yl]-2-oxo/thioxo-1,2,3,4-tetrahydropyrimidine-5-carboxylic acid ethyl esters” (Eur J Med Chem, 2012):
# How the values were obtained:
# [1] = tested on: Staphylococcus aureus; experiment: Antibacterial activity against Staphylococcus aureus MTCC 2901 after 24 hrs by tube dilution method; format: functional
# [2] = tested on: Bacillus subtilis; experiment: Antibacterial activity against Bacillus subtilis MTCC 2063 after 24 hrs by tube dilution method; format: functional
# [3] = tested on: Escherichia coli; experiment: Antibacterial activity against Escherichia coli MTCC 1652 after 24 hrs by tube dilution method; format: functional
# [4] = tested on: Candida albicans; experiment: Antifungal activity against Candida albicans MTCC 227 after 48 hrs by tube dilution method; format: functional
# [5] = tested on: Aspergillus niger; experiment: Antifungal activity against Aspergillus niger MTCC 8189 after 7 days by tube dilution method; format: functional
# [6] = tested on: Staphylococcus aureus; experiment: Antibacterial activity against Staphylococcus aureus MTCC 2901 after 24 hrs followed by subculturing; format: functional
# [7] = tested on: Bacillus subtilis; experiment: Antibacterial activity against Bacillus subtilis MTCC 2063 after 24 hrs by tube dilution method hrs followed by subculturing; format: functional
# [8] = tested on: Escherichia coli; experiment: Antibacterial activity against Escherichia coli MTCC 1652 after 24 hrs by tube dilution method hrs followed by subculturing; format: functional
# [9] = tested on: Candida albicans; experiment: Antifungal activity against Candida albicans MTCC 227 after 48 hrs by tube dilution method hrs followed by subculturing; format: functional
# [10] = tested on: Aspergillus niger; experiment: Antifungal activity against Aspergillus niger MTCC 8189 after 7 days by tube dilution method hrs followed by subculturing; format: functional
# [11] = tested on: Staphylococcus aureus; experiment: Ratio of MIC to MBC for Staphylococcus aureus MTCC 2901; format: functional
# [12] = tested on: Bacillus subtilis; experiment: Ratio of MIC to MBC for Bacillus subtilis MTCC 2063; format: functional
# [13] = tested on: Escherichia coli; experiment: Ratio of MIC to MBC for Escherichia coli MTCC 1652; format: functional
# [14] = tested on: Candida albicans; experiment: Ratio of MIC to MFC for Candida albicans MTCC 227; format: functional
# [15] = tested on: Aspergillus niger; experiment: Ratio of MIC to MFC for Aspergillus niger MTCC 8189; format: functional
# [16] = Partition coefficient, log P of the compound; format: physicochemical; settings: octanol/water
# [17] = tested on: MCF7; experiment: cells; settings: Homo sapiens, MCF7, 72 h
# Description: Cytotoxicity against human MCF7 cells after 72 hrs by MTT assay
# [18] = tested on: HCT-116; experiment: cells; settings: Homo sapiens, HCT-116, 72 h
SMILES,-logMIC [1],-logMIC [2],-logMIC [3],-logMIC [4],-logMIC [5],MBC [6],MBC [7],MBC [8],MFC [9],MFC [10],Ratio [11],Ratio [12],Ratio [13],Ratio [14],Ratio [15],logP [16],IC50 [17],IC50 [18]
CCOC(=O)C1=C(C)NC(=S)NC1c1cn(C(=O)CNc2ccc([N+](=O)[O-])cc2)c2ccccc12 (stereo not given),1.6,1.6,2.5,1.9,1.6,>0.1 uM/ml,>0.1 uM/ml,0.03 uM/ml,0.1 uM/ml,>0.1 uM/ml,3,3,3,3,3,2.88,> 1000 mg/L,
CCOC(=O)C1=C(C)NC(=S)NC1c1cn(C(=O)CNc2ccccc2N)c2ccccc12 (stereo not given),1.87,1.57,2.17,1.57,1.57,0.11 uM/ml,>0.11 uM/ml,0.05 uM/ml,>0.11 uM/ml,0.11 uM/ml,3,3,3,3,3,2.14,100 mg/L,
CCOC(=O)C1=C(C)NC(=S)NC1c1cn(C(=O)CNc2ccc([N+](=O)[O-])cc2C)c2ccccc12 (stereo not given),1.61,1.61,1.61,1.61,1.61,>0.1 uM/ml,>0.1 uM/ml,>0.1 uM/ml,>0.1 uM/ml,>0.1 uM/ml,3,3,3,3,3,3.34,48 mg/L,> 1000 mg/L
CCOC(=O)C1=C(C)NC(=S)NC1c1cn(C(=O)CNc2ccccc2)c2ccccc12 (stereo not given),1.55,1.25,1.55,1.55,1.55,>0.11 uM/ml,>0.11 uM/ml,>0.11 uM/ml,>0.11 uM/ml,>0.11 uM/ml,3,3,3,3,3,2.92,52 mg/L,450 mg/L
CCn1cc(C(=O)O)c(=O)c2cc(F)c(N3CCNCC3)cc21 [NORFLOXACIN],2.61,2.61,2.61,,,0.019 uM/ml,0.019 uM/ml,0.019 uM/ml,,,,,,,,,,
CCOC(=O)C1=C(C)NC(=O)NC1c1cn(C(=O)CNc2ccccc2[N+](=O)[O-])c2ccccc12 (stereo not given),1.58,1.58,1.58,1.58,1.58,>0.1 uM/ml,>0.1 uM/ml,>0.1 uM/ml,>0.1 uM/ml,>0.1 uM/ml,3,3,3,3,3,1.48,40 mg/L,250 mg/L
CCOC(=O)C1=C(C)NC(=O)NC1c1cn(C(=O)CNc2ccccc2N)c2ccccc12 (stereo not given),1.55,1.55,1.85,1.55,1.55,>0.11 uM/ml,>0.11 uM/ml,0.11 uM/ml,>0.11 uM/ml,>0.11 uM/ml,3,3,3,3,3,0.74,2.5 mg/L,300 mg/L
CCOC(=O)C1=C(C)NC(=S)NC1c1cn(C(=O)CNc2ccc([N+](=O)[O-])c(Cl)c2)c2ccccc12 (stereo not given),1.63,1.32,1.63,1.63,1.63,>0.09 uM/ml,>0.09 uM/ml,>0.09 uM/ml,>0.09 uM/ml,>0.09 uM/ml,3,3,3,3,3,3.4,50 mg/L,29 mg/L
CCOC(=O)C1=C(C)NC(=O)NC1c1cn(C(=O)CNc2ccc(Cl)cc2)c2ccccc12 (stereo not given),1.57,1.27,1.27,1.57,1.57,>0.11 uM/ml,>0.11 uM/ml,>0.11 uM/ml,>0.11 uM/ml,>0.11 uM/ml,3,3,3,3,3,2.04,200 mg/L,
CCOC(=O)C1=C(C)NC(=O)NC1c1cn(C(=O)CNc2ccc([N+](=O)[O-])cc2C)c2ccccc12 (stereo not given),1.59,1.29,1.59,1.59,1.59,>0.1 uM/ml,>0.1 uM/ml,>0.1 uM/ml,>0.1 uM/ml,>0.1 uM/ml,3,3,3,3,3,1.94,50 mg/L,600 mg/L
CCOC(=O)C1=C(C)NC(=S)NC1c1cn(C(=O)CNc2cccc([N+](=O)[O-])c2)c2ccccc12 (stereo not given),1.6,1.6,1.9,1.6,1.6,>0.1 uM/ml,>0.1 uM/ml,0.1 uM/ml,>0.1 uM/ml,>0.1 uM/ml,3,3,3,3,3,2.88,> 1000 mg/L,130 mg/L
CCOC(=O)C1=C(C)NC(=O)NC1c1cn(C(=O)CNc2ccc([N+](=O)[O-])cc2)c2ccccc12 (stereo not given),1.88,1.58,1.88,1.58,1.58,0.1 uM/ml,>0.1 uM/ml,0.1 uM/ml,>0.1 uM/ml,>0.1 uM/ml,3,3,3,3,3,1.48,> 1000 mg/L,
CCOC(=O)C1=C(C)NC(=S)NC1c1cn(C(=O)CNc2ccc(Cl)cc2)c2ccccc12 (stereo not given),1.59,1.59,2.19,1.59,1.59,>0.1 uM/ml,>0.1 uM/ml,0.05 uM/ml,>0.1 uM/ml,>0.1 uM/ml,3,3,3,3,3,3.44,80 mg/L,
CCOC(=O)C1=C(C)NC(=S)NC1c1cn(C(=O)CNc2ccccc2Cl)c2ccccc12 (stereo not given),1.29,1.29,1.59,1.59,1.59,>0.1 uM/ml,>0.1 uM/ml,>0.1 uM/ml,>0.1 uM/ml,>0.1 uM/ml,3,3,3,3,3,3.44,,
O=c1[nH]cc(F)c(=O)[nH]1 [FLUOROURACIL],,,,,,,,,,,,,,,,,0.67 mg/L,6 mg/L
OC(Cn1cncn1)(Cn1cncn1)c1ccc(F)cc1F [FLUCONAZOLE],,,,2.64,2.64,,,,0.04 uM/ml,0.04 uM/ml,,,,,,,,
CCOC(=O)C1=C(C)NC(=O)NC1c1cn(C(=O)CNc2cccc([N+](=O)[O-])c2)c2ccccc12 (stereo not given),1.88,1.58,1.88,1.58,1.58,0.1 uM/ml,>0.1 uM/ml,0.1 uM/ml,>0.1 uM/ml,>0.1 uM/ml,3,3,3,3,3,1.48,,
